In patent US9611263B2, “Compounds that modulate intracellular calcium” (CALCIMEDICA, INC., priority 2013, dated 2017):
Where two headings read alike, the source gives them in different places.

What was measured:
[1] = biological target: STIM1 and Orai1 (Homo sapiens, UniProt Q96D31); details: HEK293 cells co-expressing STIM1 and Orai1; cited from earlier work
[2] = system: Jurkat cells; details: cited from earlier work
[3] = system: Jurkat cells; details: cited from earlier work; remark: listed apart in the source
[4] = biological target: T1, Orai1/STIM1 (Homo sapiens, UniProt Q96D31); test: Fluorescence-based assay of store-operated calcium entry in Orai1/STIM1 stable cells; format: cell-based; details: for IC50: HEK-293 cells stably expressing human STIM1 and Orai1, 50% inhibition of Peak-Basal fluorescence signal, read-out: Orai1/STIM1 (IC50, μmol)
T1 construct: expressed in transfected cells
T1 sequence (Q96D31 whole entry): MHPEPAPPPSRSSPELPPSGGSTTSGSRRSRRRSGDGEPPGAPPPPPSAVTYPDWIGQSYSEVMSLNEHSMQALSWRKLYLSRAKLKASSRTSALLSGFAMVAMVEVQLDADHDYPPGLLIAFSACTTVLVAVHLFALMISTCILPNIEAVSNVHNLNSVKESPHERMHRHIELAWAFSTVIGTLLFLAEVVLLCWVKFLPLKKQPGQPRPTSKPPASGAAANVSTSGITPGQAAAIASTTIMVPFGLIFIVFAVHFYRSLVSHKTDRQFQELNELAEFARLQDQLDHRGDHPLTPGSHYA
Description: A. Fluorescence-Based Assay of Store-Operated Calcium Entry in Orai1/STIM1 Stable Cells.
Cells stably expressing recombinant human STIM1 and Orai1 are generated by transfecting a human Orai1 expression plasmid (pcDNA3.1-Orai1-cmyc) into HEK-293 cells stably overexpressing human STIM1 (Roos et al. 2005 JCB 169(3): 435-445). Colonies of cells stably expressing both STIM1 and Orai1 proteins are selected and then subcloned by limiting dilution. Cells were cultured at 37° C./6% CO2 in complete medium with 10% FBS and appropriate selection markers.
The day prior to performing the assay Orai1/STIM1 stable cells are plated in 50 μL of complete medium at 90-95% confluence in a 384 well plate. Cells are grown at 37° C./6% CO2 overnight. On the day of the assay, 1.5 μM fluo-4-AM (Invitrogen) in complete medium is added to the cells, which are then incubated for 1 hour at RT. Cells are washed once in Ca^2+-free HBSS (Hank's buffered saline solution) and 35 μl of Ca^2+-free HBSS is added to each well. Test compounds are added to wells in a 10 μL Ca^2+-free HBSS solution, prepared at 4.5× the desired final concentration, and incubated for 30 minutes at RT. The initial baseline fluorescence signal is then measured with a FLIPR^384 (Molecular Devices) plate reader. Calcium entry is initiated by adding 5 μl of 10× CaCl2 (10 mM) in HBSS, and changes in cellular fluorescence are measured with the FLIPR^384 plate reader. In each well, the magnitude of the fluorescence signal as a result of calcium entry into the cell is determined by calculating the difference between the peak fluorescence signal measured after calcium addition and the initial baseline fluorescence signal (designated Peak-Basal). IC50 values are typically calculated as the concentration that inhibited 50% of the Peak-Basal signal.

[5] = system: RBL-2H3 cells; test: Fluorescence-based assay of store-operated calcium entry in RBL-2H3 cells; format: cell-based, rat; details: for IC50: thapsigargin, 50% inhibition of Upslope, read-out: RBL-2H3 (IC50, μmol); for RBL-2H3 efficacy: given in place of a class
Description: B. Fluorescence-Based Assay of Store-Operated Calcium Entry in RBL-2H3 Cells.
RBL-2H3 cells are obtained from ATCC and maintained in complete medium with 10% FBS at 37° C./6% CO2.
The day prior to performing the assay, RBL-2H3 cells are plated in 50 μL of complete medium in a 384 well plate. Cells are grown at 37° C./6% CO2 overnight and grow to 50-60% confluence by the next day. On the assay day, 1.5 μM Fluo-4-AM dye (Invitrogen) in complete medium is added and incubated for 1 hour at RT. Cells are washed twice in Ca^2+-free HBSS buffer and 35 μL Ca^2+-free HBSS buffer is added to each well. 10 μL of a test compound prepared in a Ca^2+-free HBSS solution at 4.5× of the desired concentration is added to a well and incubated for 5 minutes at RT. 10 μL of thapsigargin prepared in a Ca^2+-free HBSS solution at 5.5× of the desired concentration (5.5 uM) is added to each well and incubated for an additional 25 minutes. The initial baseline fluorescence signal is measured with a FLIPR^384 (Molecular Devices) plate reader. 5 μL of 12× calcium in HBSS (12 mM) is added and changes in cellular fluorescence are measured with the FLIPR^384 plate reader. In each well, the change in the fluorescent signal as a function of time due to calcium entry into the cell is determined by calculating the difference between the fluorescent signal measured 7 seconds after calcium addition and the initial baseline fluorescence signal at time zero (t=0). This parameter is designated Upslope. The IC50 value is calculated as the concentration at which 50% of the Upslope is inhibited.

Chain of STIM1 and Orai1 (Q96D31 whole entry, species assumed): as the sequence (Q96D31 whole entry) above

| Compound | IC50 [4] | IC50 ([5]; Rattus norvegicus, RBL-2H3) | also measured |
| --- | --- | --- | --- |
| NCCOB(c1ccccc1)c1ccccc1 [2-aminoethoxydiphenylborate] | – | – | store-operated Ca2+ entry [1]: completely blocked |
| Cc1nnsc1C(=O)Nc1ccc(-n2nc(C(F)(F)F)cc2C(F)(F)F)cc1 [BTP-2] | – | – | proliferation [2]: inhibits; SOCE [3]: inhibits |
| Cc1nn(-c2ccccc2F)cc1-c1ccc(NC(=O)c2ccccc2F)nc1 [Example 58, 2-fluoro-N-(5-(1-(2-fluorophenyl)-3-methyl-1H-pyrazol-4-yl)pyridin-2-yl)benzamide] | 600 to 1200 nM | > 1200 nM | – |
| Cc1cccc(F)c1C(=O)Nc1ccc(-c2cn(-c3ccccc3F)nc2C)cn1 [Example 59, 2-fluoro-N-(5-(1-(2-fluorophenyl)-3-methyl-1H-pyrazol-4-yl)pyridin-2-yl)-6-methylbenzamide] | < 600 nM | < 600 nM | – |
| Cc1ccc(F)c(C(=O)Nc2ccc(-c3cn(-c4ccccc4F)nc3C)cn2)c1F [Example 60, 2,6-difluoro-N-(5-(1-(2-fluorophenyl)-3-methyl-1H-pyrazol-4-yl)pyridin-2-yl)-3-methylbenzamide] | < 600 nM | < 600 nM | – |
| Cc1nn(-c2ccccc2F)cc1-c1ccc(NC(=O)c2ccccc2OC(F)F)nc1 [Example 61, 2-(difluoromethoxy)-N-(5-(1-(2-fluorophenyl)-3-methyl-1H-pyrazol-4-yl)pyridin-2-yl)benzamide] | > 1200 nM | > 1200 nM | – |
| N#Cc1nn(-c2cc(F)ccc2F)cc1-c1ccc(NC(=O)c2c(F)cccc2F)nc1 [Example 62, N-(5-(3-cyano-1-(2,5-difluorophenyl)-1H-pyrazol-4-yl)pyridin-2-yl)-2,6-difluorobenzamide] | 600 to 1200 nM | < 600 nM | – |
| Cc1cnc(-n2cc(-c3ccc(NC(=O)c4c(F)cccc4F)nc3)c(C)n2)s1 [Example 63, 2,6-difluoro-N-(5-(3-methyl-1-(5-methylthiazol-2-yl)-1H-pyrazol-4-yl)pyridin-2-yl)benzamide] | – | – | Orai1/STIM1 efficacy ([4]; given in place of a class): <50%; RBL-2H3 efficacy [5]: <50% |
| Cc1cnc(-n2cc(-c3ccc(NC(=O)c4c(F)ccc(F)c4F)nc3)c(C)n2)s1 [Example 64, 2,3,6-trifluoro-N-(5-(3-methyl-1-(5-methylthiazol-2-yl)-1H-pyrazol-4-yl)pyridin-2-yl)benzamide] | < 600 nM | < 600 nM | – |
| Cc1cnc(-n2cc(-c3ccc(NC(=O)c4c(F)cc(F)cc4F)nc3)c(C)n2)s1 [Example 65, 2,4,6-trifluoro-N-(5-(3-methyl-1-(5-methylthiazol-2-yl)-1H-pyrazol-4-yl)pyridin-2-yl)benzamide] | < 600 nM | – | RBL-2H3 efficacy [5]: <50% |
| Cc1cn(-c2nccs2)nc1-c1ccc(NC(=O)c2c(F)cccc2F)cc1F [Example 66, 2,6-difluoro-N-(3-fluoro-4-(4-methyl-1-(thiazol-2-yl)-1H-pyrazol-3-yl)phenyl)benzamide] | > 1200 nM | < 600 nM | – |
| Cc1nn(-c2nccs2)cc1-c1cnc(NC(=O)c2c(F)ccc(F)c2F)s1 [Example 67, 2,3,6-trifluoro-N-(5-(3-methyl-1-(thiazol-2-yl)-1H-pyrazol-4-yl)thiazol-2-yl)benzamide] | 600 to 1200 nM | < 600 nM | – |
| CCc1nn(-c2nccs2)cc1-c1nnc(NC(=O)c2c(F)ccc(F)c2F)s1 [Example 68, N-(5-(3-ethyl-1-(thiazol-2-yl)-1H-pyrazol-4-yl)-1,3,4-thiadiazol-2-yl)-2,3,6-trifluorobenzamide] | 600 to 1200 nM | < 600 nM | – |
| Cc1nn(-c2nccs2)cc1-c1ccc(NC(=O)c2c(F)cccc2F)s1 [Example 69, 2,6-difluoro-N-(5-(3-methyl-1-(thiazol-2-yl)-1H-pyrazol-4-yl)thiophen-2-yl)benzamide] | < 600 nM | < 600 nM | – |
| Cc1nn(-c2nccs2)cc1-c1ccc(NC(=O)c2ccccc2F)s1 [Example 70, 2-fluoro-N-(5-(3-methyl-1-(thiazol-2-yl)-1H-pyrazol-4-yl)thiophen-2-yl)benzamide] | < 600 nM | < 600 nM | – |
| Cc1cccc(F)c1C(=O)Nc1ccc(-c2cn(-c3nccs3)nc2C)s1 [Example 71, 2-fluoro-6-methyl-N-(5-(3-methyl-1-(thiazol-2-yl)-1H-pyrazol-4-yl)thiophen-2-yl)benzamide] | 600 to 1200 nM | < 600 nM | – |
| Cc1nn(-c2nccs2)cc1-c1ccc(NC(=O)c2ccccc2OC(F)F)s1 [Example 72, 2-(difluoromethoxy)-N-(5-(3-methyl-1-(thiazol-2-yl)-1H-pyrazol-4-yl)thiophen-2-yl)benzamide] | 600 to 1200 nM | > 1200 nM | – |
| CCc1nn(-c2nccs2)cc1-c1ccc(NC(=O)c2c(F)cccc2F)s1 [Example 73, N-(5-(3-ethyl-1-(thiazol-2-yl)-1H-pyrazol-4-yl)thiophen-2-yl)-2,6-difluorobenzamide] | 600 to 1200 nM | < 600 nM | – |
| CCc1nn(-c2nccs2)cc1-c1ccc(NC(=O)c2ccccc2F)s1 [Example 74, N-(5-(3-ethyl-1-(thiazol-2-yl)-1H-pyrazol-4-yl)thiophen-2-yl)-2-fluorobenzamide] | < 600 nM | < 600 nM | – |
| Cc1nn(-c2nccs2)cc1-c1ccc(NCc2c(F)cccc2F)cc1F [Example 75, N-(2,6-difluorobenzyl)-3-fluoro-4-(3-methyl-1-(thiazol-2-yl)-1H-pyrazol-4-yl)aniline] | < 600 nM | < 600 nM | – |
| N-(4-(3-ethyl-1-(thiazol-2-yl)-1H-pyrazol-4-yl)phenyl)-2,3,6-trifluorobenzamide [Example 9] | 600 to 1200 nM | – | IC50 [5]: < 600 nM |
| N-(5-(3-ethyl-1-(thiazol-2-yl)-1H-pyrazol-4-yl)pyrazin-2-yl)-2,3,6-trifluorobenzamide [Example 39] | 600 to 1200 nM | – | IC50 [5]: < 600 nM |
| N-(5-(3-ethyl-1-(thiazol-2-yl)-1H-pyrazol-4-yl)pyrazin-2-yl)-2,4,6-trifluorobenzamide [Example 40] | < 600 nM | – | IC50 [5]: < 600 nM |
